Measured values from patent publication US20210244721A1, “SMALL MOLECULE ENTEROVIRUS INHIBITORS AND USES THEREOF” (priority 2020, published 2021).
Where two headings read alike, the source gives them in different places.

Legend:
SH-SY5Y cells = test: Cytotoxicity in SH-SY5Y cells
Method: (§1) The cytotoxicity of each compound was determined using the neutral red cell viability assay. The assay was performed under similar conditions (incubation temperature, time, and media) as the CPE, but excluded viral infection. Data acquisition and analysis (CC50) was performed similarly to the antiviral CPE assay, and all values are from triplicate experiments.

A172 cells = test: Cytotoxicity in A172 cells
Method: as §1

CVB3 = test: CPE assay, CVB3 in Vero C1008 cells; assay type: cell-based, coxsackievirus B3 (CVB3); details: Enterovirus B; CVB3, Vero C1008 cells; read-out: EC50
EV-A71 Tainan/4643/98 = test: CPE assay, EV-A71 Tainan in RD cells; assay type: cell-based; details: Enterovirus A, EVA71; EV-A71 Tainan, RD cells; read-out: EC50
EV-A71 US/AK/16-19516 = test: CPE assay, EV-A71 US/AK in RD cells; assay type: cell-based; details: Enterovirus A, EVA71
[1] = system: EV-D68 US/KY/14-18953 virus; test: CPE assay, EV-D68 US/KY/14-18953 in RD cells; assay type: cell-based, Enterovirus D68 (EV-D68); details: EV-D68 US/KY/14-18953, RD cells, CPE assay
EV-D68 US/MO/14-18947 = test: CPE assay, EV-D68 US/MO/14-18947 in RD cells; details: Enterovirus D, EVD68, RD, EV-D68 US/MO/14-18947, RD cells
[2] = Cytotoxicity in Vero C1008 cells; details: African green monkey, Vero C1008 cells
CVB3 2C protein = target: T1, CVB3 2C protein (Coxsackievirus B3, UniProt P03313); test: Thermal shift assay (differential scanning fluorimetry); assay type: binding; details: 1 mM, CVB3 2C 4.5 μM
T1 construct: CVB3 Nancy 2C (amino acids 37 to 329) protein; His tag with TEV site (inferred from the pET28a(+)-TEV vector and Ni-NTA purification); made in house; host or cells: E. coli Rosetta 2(DE3)
T1 sequence (P03313 1137-1429): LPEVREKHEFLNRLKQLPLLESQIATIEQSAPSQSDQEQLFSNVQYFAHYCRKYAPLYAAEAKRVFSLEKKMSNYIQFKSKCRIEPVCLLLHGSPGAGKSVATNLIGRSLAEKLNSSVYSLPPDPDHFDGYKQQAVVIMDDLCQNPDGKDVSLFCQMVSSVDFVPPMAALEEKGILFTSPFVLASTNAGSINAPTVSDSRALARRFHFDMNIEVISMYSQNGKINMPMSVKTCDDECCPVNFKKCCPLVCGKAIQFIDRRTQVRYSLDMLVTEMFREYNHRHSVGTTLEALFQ

SMILES: CN(C)CCNC(=O)c1cc(-c2cccs2)nc2ccccc12 [drawing 133]
- CC50 (SH-SY5Y cells): 136000 nM
- CC50 (A172 cells): 73800 nM

SMILES: O=C(NCCN1CCCC1)c1cc(-c2cccs2)nc2ccccc12 [drawing 134]
- CC50 (SH-SY5Y cells): 93300 nM
- CC50 (A172 cells): 65400 nM

SMILES: CNCCNC(=O)c1cc(-c2ccccc2)nc2ccccc12 [drawing 182]
- EC50 (CVB3): 1100 nM
- EC50 (EV-A71 Tainan/4643/98): 7800 nM
- EC50 (EV-A71 US/AK/16-19516): > 10000 nM

SMILES: CC(CN(C)C)NC(=O)c1cc(-c2ccccc2)nc2ccccc12 (stereo not drawn) [drawing 183]
- EC50 (CVB3): 2000 nM
- EC50 (EV-A71 Tainan/4643/98): 18300 nM
- EC50 (EV-A71 US/AK/16-19516): 11700 nM

SMILES: CN(C)CCNC(=O)c1cc(-c2ccc(F)cc2)nc2ccccc12 [drawing 185]
- EC50 (CVB3): 60 nM
- EC50 (EV-A71 Tainan/4643/98): 2200 nM
- EC50 ([1]; read-out: EC50): 100 nM
- EC50 (EV-A71 US/AK/16-19516): 2300 nM
- EC50 (EV-D68 US/MO/14-18947): 50 nM

SMILES: CNCCNC(=O)c1cc(-c2ccc(F)cc2)nc2ccccc12 [drawing 186]
- EC50 (CVB3): 200 nM
- EC50 (EV-A71 Tainan/4643/98): 3100 nM
- EC50 [1]: 200 nM

SMILES: NCCNC(=O)c1cc(-c2ccc(F)cc2)nc2ccccc12 [drawing 187]
- EC50 (CVB3): 400 nM
- EC50 (EV-A71 Tainan/4643/98): 9000 nM
- EC50 ([1]; read-out: EC50): 400 nM
- EC50 (EV-A71 US/AK/16-19516): 14000 nM
- EC50 (EV-D68 US/MO/14-18947): 300 nM

SMILES: CN(C)CCNC(=O)c1cc(-c2ccc(F)cc2F)nc2ccccc12 [drawing 188]
- EC50 (CVB3): 400 nM
- EC50 (EV-A71 Tainan/4643/98): 7900 nM
- EC50 (EV-A71 US/AK/16-19516): > 10000 nM

SMILES: CN(C)CCNC(=O)c1cc(-c2cccs2)nc2ccccc12 [drawing 189]
- EC50 (CVB3): 70 nM
- EC50 (EV-A71 Tainan/4643/98): 2900 nM
- EC50 [1]: 40 nM
- EC50 (EV-A71 US/AK/16-19516): > 10000 nM

SMILES: CC(CN(C)C)NC(=O)c1cc(-c2cccs2)nc2ccccc12 (stereo not drawn) [drawing 190]
- EC50 (CVB3): 400 nM
- EC50 (EV-A71 Tainan/4643/98): 7900 nM
- EC50 (EV-A71 US/AK/16-19516): 8800 nM

SMILES: CN1CCC(NC(=O)c2cc(-c3cccs3)nc3ccccc23)C1 (stereo not drawn) [drawing 191]
- EC50 (CVB3): 200 nM
- EC50 (EV-A71 Tainan/4643/98): 6300 nM
- EC50 (EV-A71 US/AK/16-19516): 8000 nM

SMILES: CNCCNC(=O)c1cc(-c2cccs2)nc2ccccc12 [drawing 192]
- EC50 (CVB3): 300 nM
- EC50 (EV-A71 Tainan/4643/98): 8400 nM
- EC50 ([1]; read-out: EC50): 300 nM
- EC50 (EV-A71 US/AK/16-19516): 11500 nM
- EC50 (EV-D68 US/MO/14-18947): 200 nM

SMILES: NCCNC(=O)c1cc(-c2cccs2)nc2ccccc12 [drawing 193]
- EC50 (CVB3): 600 nM
- EC50 (EV-A71 Tainan/4643/98): 38300 nM
- EC50 (EV-A71 US/AK/16-19516): > 30000 nM

SMILES: CN(C)CCNC(=O)c1cc(-c2ccco2)nc2ccccc12 [drawing 194]
- EC50 (CVB3): 1200 nM
- EC50 (EV-A71 Tainan/4643/98): 30900 nM
- EC50 (EV-A71 US/AK/16-19516): 20900 nM

SMILES: CCCCOc1cc(C(=O)NCCN(CC)CC)c2ccccc2n1 [drawing 195]
- EC50 (CVB3): 1300 nM
- EC50 (EV-A71 Tainan/4643/98): > 10000 nM
- CC50 at 3 days [2]: 64400 nM

SMILES: N=C(N)N [guanidine, reference compound]
- Tm shift (CVB3 2C protein): 1.77 °C
